According to patent US9765039B2, “Biaryl derivatives as bromodomain inhibitors” (Zenith Epigenetics Ltd., priority 2012, dated 2017):
Structures can show the parent of a compound that is named as a salt.

Columns and labels:
Brd4 bromodomain 1 = molecular target: T1, Brd4 bromodomain 1 (Homo sapiens, UniProt O60885); test: Inhibition of tetra-acetylated histone H4 binding to BET bromodomains (TR-FRET); parameters: key: Active: Compounds with an IC50 value less than 30 μM were deemed to be active.; Not Active: Compounds with an IC50 value less than 30 μM were deemed to be active; conditions: first bromodomain of Brd4, tetra-acetylated histone H4 peptide
T1 construct: made in house; host or cells: E. coli BL21(DE3)
Protocol: Proteins were cloned and overexpressed with a N-terminal 6×His tag, then purified by nickel affinity followed by size exclusion chromatography. Briefly, E. coli BL21(DE3) cells were transformed with a recombinant expression vector encoding N-terminally Nickel affinity tagged bromodomains from Brd2, Brd3, Brd4. Cell cultures were incubated at 37° C. with shaking to the appropriate density and induced overnight with IPTG. The supernatant of lysed cells was loaded onto Ni-IDA column for purification. Eluted protein was pooled, concentrated and further purified by size exclusion chromatography. Fractions representing monomeric protein were pooled, concentrated, aliquoted, and frozen at −80° C. for use in subsequent experiments.
Binding of tetra-acetylated histone H4 and BET bromodomains was confirmed by a Time Resolved Fluorescence Resonance Energy Transfer (TR-FRET) method. N-terminally His-tagged bromodomains (200 nM) and biotinylated tetra-acetylated histone H4 peptide (25-50 nM, Millipore) were incubated in the presence of Europium Cryptate-labeled streptavidin (Cisbio Cat. #610SAKLB) and XL665-labeled monoclonal anti-His antibody (Cisbio Cat. #61HISXLB) in a white 96 well microtiter plate (Greiner). For inhibition assays, serially diluted test compound was added to these reactions in a 0.2% final concentration of DMSO. Final buffer concentrations were 30 mM HEPES pH 7.4, 30 mM NaCl, 0.3 mM CHAPS, 20 mM phosphate pH 7.0, 320 mM KF, 0.08% BSA). After 2 hours incubation at room temperature, the fluorescence by FRET was measured at 665 and 620 nm by a SynergyH4 plate reader (Biotek). Illustrative results with the first bromodomain of Brd4 are shown below (Table 1). The binding inhibitory activity was shown by a decrease in 665 nm fluorescence relative to 620 nm. IC50 values were determined from a dose response curve.

hIL-6 mRNA = test: Inhibition of hIL-6 mRNA transcription in LPS-stimulated U937 macrophages; type: cell-based, human; parameters: key: Active: Compounds with an IC50 value less than 30 μM are deemed to be active; conditions: U937 differentiated into macrophages, 1 h pretreatment, lipopolysaccharide 3 h
Protocol: In this example, hIL-6 mRNA in tissue culture cells was quantitated to measure the transcriptional inhibition of hIL-6 when treated with a compound of the present disclosure.
A human leukemic monocyte lymphoma cell line (U937) was plated (3.2×10^4 cells per well) in a 96-well plate in 100 μL RPMI-1640 containing 10% FBS and penicillin/streptomycin, and differentiated into macrophages for 3 days in 60 ng/mL PMA ([…]) at 37° C. in 5% CO2 prior to the addition of the compound of interest. The cells were pretreated for 1 h with the test compound prior to stimulation with […] lipopolysaccharide from Escherichia coli. The cells were incubated at 37° C. for 3 h before the cells were harvested. At time of harvest, the spent media was removed from the cells and the cells were rinsed in 200 μL PBS. Cell lysis solution (70 μL) was added the cells in each well and incubated for 5-10 min at room temperature, to allow for complete cell lysis and detachment. mRNA was then prepared using the “mRNA Catcher PLUS plate” (Invitrogen), according to the protocol supplied. After the last wash, as much wash buffer as possible was aspirated without allowing the wells to dry. Elution buffer (E3, 70 μL) was then added to each well. mRNA was then eluted by incubating the mRNA Catcher PLUS plate with Elution Buffer for 5 min at 68° C. and then immediately placing the plate on ice.
The eluted mRNA isolated was then used in a one-step quantitative real-time PCR reaction, using components of the Ultra Sense Kit together with Applied Biosystems primer-probe mixes. Real-time PCR data was analyzed, normalizing the Ct values for hIL-6 to an internal control, prior to determining the fold induction of each unknown sample, relative to the control.

Human AML MV-4-11 cells = test: Inhibition of cell proliferation in cancer cell lines (CellTiter Aqueous One); type: cell-based; parameters: key: Active: Compounds with an IC50 value less than 30 μM were deemed to be active.; Not Active: Compounds with an IC50 value less than 30 μM were deemed to be active; conditions: 72 hours
Protocol: MV4-11 cells: 96-well plates were seeded with 5×10^4 cells per well of exponentially growing human AML MV-4-11 (CRL-9591) cells and immediately treated with two-fold dilutions of test compounds, ranging from 30 μM to 0.2 μM. Triplicate wells were used for each concentration, as well as a media only and three DMSO control wells. The cells and compounds were incubated at 37° C., 5% CO2 for 72 hours before adding 20 μL of the CellTiter Aqueous One Solution (Promega) to each well and incubating at 37° C., 5% CO2 for an additional 3-4 hours. The absorbance was taken at 490 nm in a spectrophotometer and the percentage of proliferation relative to DMSO-treated cells was calculated after correction from the blank well. IC50 were calculated using the GraphPad Prism software.

c-myc = test: Inhibition of c-myc expression in cancer cell lines (mRNA, real-time PCR); type: cell-based; parameters: key: Active: Compounds with an IC50 value less than 30 μM were deemed to be active; conditions: Human AML MV4-11 cells, 3 hours
Protocol: MV4-11 cells (2.5×10^4 cells) were plated in 96 well U-bottom plates with test compound or DMSO (0.1%), and incubated for 3 hours at 37° C. Cells were then harvested by centrifugation, lysed, and mRNA was isolated using the mRNA catcher plus kit (Invitrogen). Reverse transcription of the mRNA and duplex amplification of the c-myc and cyclophilin cDNAs was performed using the RNA Ultrasense kit (Invitrogen) and a ViiA7 real-time PCR machine (Applied Biosystems). IC50 values were determined from a dose response curve.

Structure (SMILES)	FRET activity (IC50 < 30 μM) (Brd4 bromodomain 1)	IL-6 activity (IC50 < 30 μM) (hIL-6 mRNA)	cell proliferation activity (IC50 < 30 μM) (Human AML MV-4-11 cells)	c-myc activity (IC50 < 30 μM) (c-myc)	melting point
CN1CC[C@H](Oc2cc(F)cc3nc(-c4cccc(-c5ccc(S(C)(=O)=O)cc5)n4)[nH]c(=O)c23)C1 [Example 7, (S)-7-Fluoro-5-((1-methylpyrrolidin-3-yl)oxy)-2-(6-(4-(methylsulfonyl)phenyl)pyridin-2-yl)quinazolin-4(3H)-one]	Not Active	Not Active			
COc1cc(OC)c2c(=O)[nH]c(-c3ccc(OC4CNC4)c(-c4ccc([S+](C)[O-])cc4)c3)nc2c1 (centres unmarked) [Example 12, 2-(6-(Azetidin-3-yloxy)-4′-(methylsulfinyl)biphenyl-3-yl)-5,7-dimethoxyquinazolin-4(3H)-one]		Not Active	Not Active	Not Active	
COc1cc(OC)c2c(=O)[nH]c(-c3cccc(-c4ccc(C(=O)N(C)C)cc4)n3)cc2c1 [Example 8, 4-(6-(6,8-Dimethoxy-1-oxo-1,2-dihydroisoquinolin-3-yl)pyridin-2-yl)-N,N-dimethylbenzamide]	Not Active	Active	Active	Not Active	
COc1cc(OC)c2c(=O)[nH]c(-c3ccc(OCCO)c(-c4ccc(S(C)(=O)=O)cc4)n3)nc2c1 (as salt: methanesulfonate) [Example 25, 2-(5-(2-Hydroxyethoxy)-6-(4-(methylsulfonyl)phenyl)pyridin-2-yl)-5,7-dimethoxyquinazolin-4(3H)-one methanesulfonate]					134 to 136 °C
CCS(=O)(=O)c1ccc(-c2nc(-c3nc4cc(OC)cc(OC)c4c(=O)[nH]3)ccc2OCCN2CCOCC2)cc1 (as salt: hydrochloride) [Example 43, 2-(6-(4-(Ethylsulfonyl)phenyl)-5-(2-morpholinoethoxy)pyridin-2-yl)-5,7-dimethoxyquinazolin-4(3H)-one]					245 °C (dec.)
COc1cc(OC)c2c(=O)[nH]c(-c3ccc(OCCO)c(-c4ccc(C(C)=O)cc4)n3)nc2c1 (as salt: hydrochloride) [Example 28, 2-(6-(4-Acetylphenyl)-5-(2-hydroxyethoxy)pyridin-2-yl)-5,7-dimethoxyquinazolin-4(3H)-one]					232 to 234 °C
CC(C)NCCOc1ccc(-c2nc3ccccc3c(=O)[nH]2)nc1-c1ccc([S+](C)[O-])cc1 (centres unmarked) [Example 65, 2-(5-(2-(Isopropylamino)ethoxy)-6-(4-(methylsulfinyl)phenyl)pyridin-2-yl)quinazolin-4(3H)-one]	Active	Active			
COc1cc(OC)c2c(=O)[nH]c(-c3ccc(OCCO)c(-c4cccc(S(C)(=O)=O)c4)n3)nc2c1 [Example 36, 2-(5-(2-Hydroxyethoxy)-6-(3-(methylsulfonyl)phenyl)pyridin-2-yl)-5,7-dimethoxyquinazolin-4(3H)-one methanesulfonate]	Not Active	Not Active	Not Active	Not Active	
COc1cc(OC)c2c(=O)[nH]c(-c3ccc(OCCO)c(-c4ccc(C(C)=O)cc4)n3)nc2c1 [Example 28, 2-(6-(4-Acetylphenyl)-5-(2-hydroxyethoxy)pyridin-2-yl)-5,7-dimethoxyquinazolin-4(3H)-one]	Active	Active			
COc1cc(OC)c2c(=O)[nH]c(-c3cccc(-c4ccc(S(C)(=O)=O)cc4)n3)cc2c1 [Example 9, 6,8-Dimethoxy-3-(6-(4-(methylsulfonyl)phenyl)pyridin-2-yl)isoquinolin-1(2H)-one]	Not Active	Not Active			
COc1cc(OC)c2c(=O)[nH]c(-c3cccc(-c4ccc([S+](C)[O-])cc4)n3)cc2c1 (centres unmarked) [Example 10, 6,8-dimethoxy-3-(6-(4-(methylsulfinyl)phenyl)pyridin-2-yl)isoquinolin-1(2H)-one]	Not Active	Active			
COc1cc(F)cc2nc(-c3ccc(OC4CNC4)c(-c4ccc([S+](C)[O-])cc4)c3)[nH]c(=O)c12 (centres unmarked) [Example 14, 2-(6-(Azetidin-3-yloxy)-4′-(methylsulfinyl)-[1,1′-biphenyl]-3-yl)-7-fluoro-5-methoxyquinazolin-4(3H)-one]	Active	Not Active	Not Active	Not Active	
COc1cc(OC)c2c(=O)[nH]c(-c3ccc(OC4CN(C)C4)c(-c4ccc([S+](C)[O-])cc4)c3)nc2c1 (centres unmarked) [Example 13, 5,7-Dimethoxy-2-(6-(1-methylazetidin-3-yloxy)-4′-(methylsulfinyl)biphenyl-3-yl)quinazolin-4(3H)-one]	Active	Active	Active	Active	
COc1cc(OC)c2c(=O)[nH]c(-c3ccc(OCCN(C)C)c(-c4ccc([S+](C)[O-])cc4)c3)nc2c1 (centres unmarked) [Example 11, 2-(6-(2-(Dimethylamino)ethoxy)-4′-(methylsulfinyl)biphenyl-3-yl)-5,7-dimethoxyquinazolin-4(3H)-one]	Active	Active	Active	Active	
COc1ccc2c(=O)[nH]c(-c3ccc(OCCNC(C)C)c(-c4ccc([S+](C)[O-])cc4)n3)nc2c1 (centres unmarked) [Example 66, 2-(5-(2-(Isopropylamino)ethoxy)-6-(4-(methylsulfinyl)phenyl)pyridin-2-yl)-7-methoxyquinazolin-4(3H)-one]	Active				
COc1cc(OC)c2c(=O)[nH]c(-c3ccc(OCCO)c(-c4ccc([S+](C)[O-])cc4)c3)nc2c1 (centres unmarked) [Example 16, 2-(6-(2-Hydroxyethoxy)-4′-(methylsulfinyl)biphenyl-3-yl)-5,7-dimethoxyquinazolin-4(3H)-one]	Active	Active	Not Active	Not Active	
